Tests used:
windgrass = assay: Test D postemergence; assay type: in vivo, Apera spica-venti; conditions: Apera spica-venti, post-emergence; for pest or weed control at 16 g/ha: 16 g ai/ha, scale 0-100, read-out: Plant response rating, Windgrass; for pest or weed control at 31 g/ha: 31 g ai/ha; for pest or weed control at 31 g/ha / pest or weed control at 62 g/ha / pest or weed control at 125 g/ha: scale 0 to 100 (0 no effect, 100 complete control), read-out: Plant response rating, Windgrass; for pest or weed control at 62 g/ha: 62 g ai/ha; for pest or weed control at 125 g/ha: 125 g ai/ha
Summary of the method: (§1)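 Seeds sown in silt loam soil got preemergence sprays; plants in peat/vermiculite potting medium were sprayed postemergence at 2–18 cm (1- to 4-leaf stage). Chemicals were formulated in a non-phytotoxic solvent mixture with surfactant. After 7 to 21 days in a controlled environment, injury was rated visually versus controls, 0 (no effect) to 100 (complete control).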

chickweed = assay: Test D preemergence; assay type: in vivo, Stellaria media; conditions: Stellaria media, pre-emergence; for pest or weed control at 16 g/ha: 16 g ai/ha, scale 0 (no effect) to 100 (complete control), read-out: Plant response rating, Chickweed; for pest or weed control at 31 g/ha: 31 g ai/ha; for pest or weed control at 31 g/ha / pest or weed control at 62 g/ha / pest or weed control at 125 g/ha: scale 0-100, read-out: Plant response rating, Chickweed; for pest or weed control at 62 g/ha: 62 g ai/ha; for pest or weed control at 125 g/ha: 125 g ai/ha
Summary of the method: as §1

pigweed = assay: Test D preemergence; assay type: in vivo, Amaranthus retroflexus; conditions: Amaranthus retroflexus, pre-emergence; for pest or weed control at 16 g/ha: 16 g ai/ha; for pest or weed control at 16 g/ha / pest or weed control at 31 g/ha: scale 0 (no effect) to 100 (complete control), read-out: Plant response rating, Pigweed; for pest or weed control at 31 g/ha: 31 g ai/ha; for pest or weed control at 62 g/ha: 62 g ai/ha; for pest or weed control at 62 g/ha / pest or weed control at 125 g/ha: scale 0-100, read-out: Plant response rating, Pigweed; for pest or weed control at 125 g/ha: 125 g ai/ha
Summary of the method: as §1

wild oat = assay: Test D preemergence; assay type: in vivo, Avena fatua; conditions: Avena fatua, pre-emergence; for pest or weed control at 16 g/ha: 16 g ai/ha, scale 0 (no effect) to 100 (complete control), read-out: Plant response rating, Oat, Wild; for pest or weed control at 31 g/ha: 31 g ai/ha; for pest or weed control at 31 g/ha / pest or weed control at 62 g/ha / pest or weed control at 125 g/ha: scale 0-100, read-out: Plant response rating, Oat, Wild; for pest or weed control at 62 g/ha: 62 g ai/ha; for pest or weed control at 125 g/ha: 125 g ai/ha
Summary of the method: as §1

deadnettle = assay: Test D postemergence; assay type: in vivo, Lamium amplexicaule; conditions: Lamium amplexicaule, post-emergence; for pest or weed control at 16 g/ha: 16 g ai/ha, scale 0-100, read-out: Plant response rating, Deadnettle; for pest or weed control at 31 g/ha: 31 g ai/ha; for pest or weed control at 31 g/ha / pest or weed control at 62 g/ha / pest or weed control at 125 g/ha: scale 0 to 100 (0 no effect, 100 complete control), read-out: Plant response rating, Deadnettle; for pest or weed control at 62 g/ha: 62 g ai/ha; for pest or weed control at 125 g/ha: 125 g ai/ha
Summary of the method: as §1

galium = assay: Test D preemergence; assay type: in vivo, Galium aparine; conditions: Galium, pre-emergence; for pest or weed control at 16 g/ha: 16 g ai/ha, scale 0 (no effect) to 100 (complete control), read-out: Plant response rating, Galium; for pest or weed control at 31 g/ha: 31 g ai/ha; for pest or weed control at 31 g/ha / pest or weed control at 62 g/ha / pest or weed control at 125 g/ha: scale 0-100, read-out: Plant response rating, Galium; for pest or weed control at 62 g/ha: 62 g ai/ha; for pest or weed control at 125 g/ha: 125 g ai/ha
Summary of the method: as §1

speedwell = assay: Test D postemergence; assay type: in vivo, Veronica persica; conditions: Veronica persica, post-emergence; for pest or weed control at 16 g/ha: 16 g ai/ha, scale 0-100, read-out: Plant response rating, Speedwell; for pest or weed control at 31 g/ha: 31 g ai/ha; for pest or weed control at 31 g/ha / pest or weed control at 62 g/ha / pest or weed control at 125 g/ha: scale 0 to 100 (0 no effect, 100 complete control), read-out: Plant response rating, Speedwell; for pest or weed control at 62 g/ha: 62 g ai/ha; for pest or weed control at 125 g/ha: 125 g ai/ha
Summary of the method: as §1

kochia = assay: Test D preemergence; assay type: in vivo, Kochia scoparia; conditions: Bassia scoparia, pre-emergence; for pest or weed control at 16 g/ha: 16 g ai/ha, scale 0 (no effect) to 100 (complete control), read-out: Plant response rating, Kochia; for pest or weed control at 31 g/ha: 31 g ai/ha; for pest or weed control at 31 g/ha / pest or weed control at 62 g/ha / pest or weed control at 125 g/ha: scale 0-100, read-out: Plant response rating, Kochia; for pest or weed control at 62 g/ha: 62 g ai/ha; for pest or weed control at 125 g/ha: 125 g ai/ha
Summary of the method: as §1

wild radish [1] = assay: Test D preemergence; assay type: in vivo, Raphanus raphanistrum; conditions: Raphanus raphanistrum, pre-emergence; for pest or weed control at 16 g/ha: 16 g ai/ha; for pest or weed control at 16 g/ha / pest or weed control at 31 g/ha: scale 0 (no effect) to 100 (complete control), read-out: Plant response rating, Radish, Wild; for pest or weed control at 31 g/ha: 31 g ai/ha; for pest or weed control at 62 g/ha: 62 g ai/ha; for pest or weed control at 62 g/ha / pest or weed control at 125 g/ha: scale 0-100, read-out: Plant response rating, Radish, Wild; for pest or weed control at 125 g/ha: 125 g ai/ha
Summary of the method: as §1

Italian ryegrass = assay: Test D preemergence; assay type: in vivo, Lolium multiflorum; conditions: Lolium multiflorum, pre-emergence; for pest or weed control at 16 g/ha: 16 g ai/ha; for pest or weed control at 16 g/ha / pest or weed control at 31 g/ha: scale 0 (no effect) to 100 (complete control), read-out: Plant response rating, Ryegrass, Italian; for pest or weed control at 31 g/ha: 31 g ai/ha; for pest or weed control at 62 g/ha: 62 g ai/ha; for pest or weed control at 62 g/ha / pest or weed control at 125 g/ha: scale 0-100, read-out: Plant response rating, Ryegrass, Italian; for pest or weed control at 125 g/ha: 125 g ai/ha
Summary of the method: as §1

wild radish [2] = assay: Test D postemergence; assay type: in vivo, Raphanus raphanistrum; conditions: Raphanus raphanistrum, post-emergence; for pest or weed control at 16 g/ha: 16 g ai/ha, scale 0-100, read-out: Plant response rating, Radish, Wild; for pest or weed control at 31 g/ha: 31 g ai/ha; for pest or weed control at 31 g/ha / pest or weed control at 62 g/ha / pest or weed control at 125 g/ha: scale 0 to 100 (0 no effect, 100 complete control), read-out: Plant response rating, Radish, Wild; for pest or weed control at 62 g/ha: 62 g ai/ha; for pest or weed control at 125 g/ha: 125 g ai/ha
Summary of the method: as §1

FC(F)(F)c1cn(-c2ccccc2Oc2ncc(Cl)cn2)nn1 [Compound 166, 5-chloro-2-[2-[4-(trifluoromethyl)-1H-1,2,3-triazol-1-yl]phenoxy]pyrimidine]
pest or weed control at 16 g/ha (windgrass): 15%
pest or weed control at 31 g/ha (windgrass): 25%
pest or weed control at 62 g/ha (windgrass): 35%
pest or weed control at 125 g/ha (windgrass): 55%
pest or weed control at 16 g/ha (chickweed): 85%
pest or weed control at 31 g/ha (chickweed): 95%
pest or weed control at 62 g/ha (chickweed): 95%
pest or weed control at 125 g/ha (chickweed): 100%
pest or weed control at 16 g/ha (pigweed): 100%
pest or weed control at 31 g/ha (pigweed): 100%
pest or weed control at 62 g/ha (pigweed): 100%
pest or weed control at 125 g/ha (pigweed): 100%
pest or weed control at 16 g/ha (wild oat): 0%
pest or weed control at 31 g/ha (wild oat): 30%
pest or weed control at 62 g/ha (wild oat): 55%
pest or weed control at 125 g/ha (wild oat): 75%
pest or weed control at 16 g/ha (deadnettle): 40%
pest or weed control at 31 g/ha (deadnettle): 60%
pest or weed control at 62 g/ha (deadnettle): 65%
pest or weed control at 125 g/ha (deadnettle): 70%
pest or weed control at 16 g/ha (galium): 65%
pest or weed control at 31 g/ha (galium): 80%
pest or weed control at 62 g/ha (galium): 100%
pest or weed control at 125 g/ha (galium): 100%
pest or weed control at 16 g/ha (speedwell): 70%
pest or weed control at 31 g/ha (speedwell): 85%
pest or weed control at 62 g/ha (speedwell): 100%
pest or weed control at 125 g/ha (speedwell): 100%
pest or weed control at 16 g/ha (kochia): 35%
pest or weed control at 31 g/ha (kochia): 65%
pest or weed control at 62 g/ha (kochia): 95%
pest or weed control at 125 g/ha (kochia): 100%
pest or weed control at 16 g/ha (wild radish [1]): 55%
pest or weed control at 31 g/ha (wild radish [1]): 80%
pest or weed control at 62 g/ha (wild radish [1]): 100%
pest or weed control at 125 g/ha (wild radish [1]): 100%
pest or weed control at 16 g/ha (Italian ryegrass): 20%
pest or weed control at 31 g/ha (Italian ryegrass): 40%
pest or weed control at 62 g/ha (Italian ryegrass): 60%
pest or weed control at 125 g/ha (Italian ryegrass): 85%
pest or weed control at 16 g/ha (wild radish [2]): 70%
pest or weed control at 31 g/ha (wild radish [2]): 70%
pest or weed control at 62 g/ha (wild radish [2]): 95%
pest or weed control at 125 g/ha (wild radish [2]): 95%

Fc1cccc(Oc2ncc(Cl)cn2)c1-n1cc(Br)cn1 [Compound 178, 2-[2-(4-bromo-1H-pyrazol-1-yl)-3-fluorophenoxy]-5-chloropyrimidine]
pest or weed control at 16 g/ha (windgrass): 5%
pest or weed control at 31 g/ha (windgrass): 10%
pest or weed control at 62 g/ha (windgrass): 15%
pest or weed control at 125 g/ha (windgrass): 20%
pest or weed control at 16 g/ha (chickweed): 0%
pest or weed control at 31 g/ha (chickweed): 50%
pest or weed control at 62 g/ha (chickweed): 85%
pest or weed control at 125 g/ha (chickweed): 90%
pest or weed control at 16 g/ha (pigweed): 75%
pest or weed control at 31 g/ha (pigweed): 100%
pest or weed control at 62 g/ha (pigweed): 100%
pest or weed control at 125 g/ha (pigweed): 100%
pest or weed control at 16 g/ha (wild oat): 0%
pest or weed control at 31 g/ha (wild oat): 0%
pest or weed control at 62 g/ha (wild oat): 10%
pest or weed control at 125 g/ha (wild oat): 25%
pest or weed control at 16 g/ha (deadnettle): 40%
pest or weed control at 31 g/ha (deadnettle): 45%
pest or weed control at 62 g/ha (deadnettle): 50%
pest or weed control at 125 g/ha (deadnettle): 65%
pest or weed control at 16 g/ha (galium): 10%
pest or weed control at 31 g/ha (galium): 30%
pest or weed control at 62 g/ha (galium): 45%
pest or weed control at 125 g/ha (galium): 60%
pest or weed control at 16 g/ha (speedwell): 70%
pest or weed control at 31 g/ha (speedwell): 80%
pest or weed control at 62 g/ha (speedwell): 100%
pest or weed control at 125 g/ha (speedwell): 100%
pest or weed control at 16 g/ha (kochia): 0%
pest or weed control at 31 g/ha (kochia): 35%
pest or weed control at 62 g/ha (kochia): 85%
pest or weed control at 125 g/ha (kochia): 100%
pest or weed control at 16 g/ha (wild radish [1]): 55%
pest or weed control at 31 g/ha (wild radish [1]): 90%
pest or weed control at 62 g/ha (wild radish [1]): 100%
pest or weed control at 125 g/ha (wild radish [1]): 100%
pest or weed control at 16 g/ha (Italian ryegrass): 0%
pest or weed control at 31 g/ha (Italian ryegrass): 0%
pest or weed control at 62 g/ha (Italian ryegrass): 15%
pest or weed control at 125 g/ha (Italian ryegrass): 20%
pest or weed control at 16 g/ha (wild radish [2]): 60%
pest or weed control at 31 g/ha (wild radish [2]): 65%
pest or weed control at 62 g/ha (wild radish [2]): 70%
pest or weed control at 125 g/ha (wild radish [2]): 80%
